This passage reports IC50 results from patent publication US12371434B2, “MLL1 inhibitors and anti-cancer agents” (NOVARTIS AG, priority 2020, dated 2025).

Assay [1] deals with wild type MLL1 four-member complex (MLL1-4C) (Homo sapiens, UniProt Q03164). Kind of assay: MLL1 LC-MS assay. The class given is biochemical. As to conditions: 30 nM MLL1-4C, 2.5 μM SAM, 10 μM H3K4me0; SAH production by LC-MS/MS; read-out: MLL1 LCMS. The protocol:
The compounds of the present disclosure were serially and separately diluted 3-fold in DMSO to obtain a total of eight or twelve concentrations. Then the test compounds at each concentration (120 nL of each) were transferred by Mosquito into white Proxiplate plus 384-well microplate (PerkinElmer). Solutions (6 μL) of 60 nM wild type MLL1 four-member complex (MLL1-4C) and 5 μM SAM in the reaction buffer (20 mM Tris-HCl, pH8.0, 0.01% Tween 20, 1 mM DTT, 10 mM MgCl2, 0.01% BSA) were added to the wells that were then incubated with the test compound for 20 min. A 6 μL solution of 20 μM of the peptide substrate H3K4me0 (histone H3[1-21]-Biotin) in the reaction buffer was added to initiate each reaction. The final components in the reaction solution include 30 nM MLL1-4C, 2.5 μM SAM, and 10 μM H3K4me0 with varying concentration of the compounds. A positive control consisted of 30 nM MLL1-4C, 2.5 μM SAM, and 10 μM substrate in the absence of the test compound, and a negative control consisted of 2.5 μM SAM, and 10 μM substrate only. Each reaction was incubated at rt for 120 min, then stopped by addition of 3 μL per of quench solution (2.5% TFA with 320 nM d4-SAH). The reaction mixture was centrifuged (Eppendorf centrifuge 5810, Rotor A-4-62) for 2 min at 2000 rmp. The SAH production from the enzymatic assays were monitored by LC-MS/MS on an API 4000 triple quadrupole mass spec with TurboIon Spray (Applied Biosystem) coupled with Prominenece UFLC(Shimazu). The level of SAH production were then normalized based on the values coming from the positive and negative controls to give percent enzyme activities. The data were then fit to a dose response equation using the program Helios (Novartis) to get the IC50 values of the test compounds.

A further assay has as its system H3K4me3 in MV4-11 cells. Kind of assay: MV4-11 H3K4Me3 cellular ELISA assay. As to conditions: Homo sapiens, 48 hours, H3K4me3 signal normalized to total H3. The class given is cell-based. The protocol:
MV4-11H3K4Me3 Cellular ELISA Assay
MV4-11 (ATCC® CRL-9591™) was cultured with RPMI1640 medium (Thermo Fisher Scientific, cat #11875) supplemented with 10% FBS (Thermo Fisher Scientific, cat #10099141) and 50 U/ml Penicillin-Streptomycin (Thermo Fisher Scientific, cat #10378016) in humidified incubator at 37° C., 5% CO2.
200 nL compounds dissolved in DMSO were serially diluted at 1:3 ratio for 12 points starting from 10 mM and dispensed into each wells of cell culture plates (PDL-coated ViewPlate-384 Black, FTC, PerkinElmer, #6007710). 3,750 MV4-11 cells in 40 μL culture medium were seeded into each well and treated with desired concentration for 48 hours. After treatment, wash cells with cold phosphate based buffer (PBS, pH 7.4) and aspirate the remaining PBS buffer. Crude histone lysate was extracted by 40 μL 0.5M HCl for 1 hour in 4° C. following neutralization by adding 32 μL neutralization buffer (0.5M Sodium phosphate dibasic, pH˜12.5, 1.25 mM Dithiothreitol, Promega #V3151, Protease Inhibitor Cocktail, Sigma #8340) for each well. 5 μL and 20 μL of histone lysate was loaded to ELISA plate (384 Well Plates, PE HB, White, 6005620) for detection of total H3 and H3K4me3, respectively. Shake the plates gently in 4° C. for overnight. After histone binding, plates were washed with 80 μL PBS/T (PBS with 0.05% Tween-20) and blocked with 50 μL 3% BSA diluted in PBS/T per well for 1 hour. Incubate wells with primary antibody for 1 hour at room temperature using anti-H3K4me3 (CST #9727) and anti-total H3 (CST #9715) diluted 1:2000 in 3% BSA. Plates were then washed with PBS/T for 3 times and incubated with horseradish peroxidase (HRP) conjugated secondary antibody (CST #7074, 1:5000) for 1 hour at room temperature. The abundance of H3K4me3 and total H3 were measured by ECL substrates chemiluminesce (Pierce, #34080) on a plate reader (PerkinElmer EnVison 2104 Mutilable Reader). Percentage inhibition was calculated against DMSO control after normalization of H3K4me3 signal to H3 signal for individual samples. The data were then fit to a dose response curve using GraphPad Prism for IC50 calculation.

Some results are limits rather than exact numbers.

Turning to `COC[C@@H](N)CCOc1cc(Cl)cc(C)c1Cn1cnc2c(N)ncnc21` [Example 3, (S)-9-(2-(3-amino-4-methoxybutoxy)-4-chloro-6-methylbenzyl)-9H-purin-6-amine], the IC50 was over 100 nM in assay [1] and over 3000 nM with H3K4me3 in MV4-11 cells. In the same order, the values of `CCc1cc(Cl)cc(OCC[C@H](N)COC)c1Cn1cnc2c(N)ncnc21` [Example 4, (S)-9-(2-(3-amino-4-methoxybutoxy)-4-chloro-6-ethylbenzyl)-9H-purin-6-amine] are over 100 nM and over 3000 nM. On to `COC[C@H](N)CCCOc1cccc(Cl)c1Cc1cnc2c(N)ncnn12` [Example 6, (R)-7-(2-((4-amino-5-methoxypentyl)oxy)-6-chlorobenzyl)imidazo[2,1-f][1,2,4]triazin-4-amine], for which the IC50 in assay [1] is over 100 nM. On the same count and under the same terms, the figure for `COC[C@H](N)CCCOc1ccccc1Cc1cnc2c(N)ncnn12` [Example 7, (R)-7-(2-((4-amino-5-methoxypentyl)oxy)benzyl)imidazo[2,1-f][1,2,4]triazin-4-amine] is over 100 nM.

Regarding `COC[C@H](N)CCCOc1cc(Cl)cc(Br)c1Cc1cnn2c(N)ncnc12` [Example 9, (R)-8-(2-((4-amino-5-methoxypentyl)oxy)-6-bromo-4-chlorobenzyl)pyrazolo[1,5-a][1,3,5] triazin-4-amine], the IC50 in assay [1] was over 100 nM; in the assay with H3K4me3 in MV4-11 cells it was over 3000 nM. On to `COC[C@H](N)CCCOc1cccc(Br)c1Cc1cnn2c(N)ncnc12` [Example 10, (R)-8-(2-((4-amino-5-methoxypentyl)oxy)-6-bromobenzyl)pyrazolo[1,5-a][1,3,5]triazin-4-amine], for which the IC50 in assay [1] is over 100 nM. Regarding `COC[C@H](N)CCCOc1cccc(Cl)c1Cc1cnn2c(N)ncnc12` [Example 11, (R)-8-(2-((4-amino-5-methoxypentyl)oxy)-6-chlorobenzyl)pyrazolo[1,5-a][1,3,5]triazin-4-amine], the IC50 in assay [1] is over 100 nM; with H3K4me3 in MV4-11 cells, over 3000 nM. Regarding `COC[C@H](N)CCCOc1ccccc1Cc1cnn2c(N)ncnc12` [Example 12, (R)-8-(2-((4-amino-5-methoxypentyl)oxy)benzyl)pyrazolo[1,5-a][1,3,5]triazin-4-amine], in assay [1], the IC50 is over 100 nM. The same measure, in the same setting: for `COC[C@H](N)CCCOc1cc(Cl)ccc1Cc1cnn2c(N)ncnc12` [Example 13, (R)-8-(2-((4-amino-5-methoxypentyl)oxy)-4-chlorobenzyl)pyrazolo[1,5-a][1,3,5]triazin-4-amine] the value was over 100 nM; for `COC[C@H](N)CCCOc1c(Cl)cccc1Cc1cnn2c(N)ncnc12` [Example 14, (R)-8-(2-((4-amino-5-methoxypentyl)oxy)-3-chlorobenzyl)pyrazolo[1,5-a][1,3,5]triazin-4-amine], over 100 nM. Turning to `COC[C@H](N)CCCOc1ccc(Cl)c(Cl)c1Cn1cnc2c(N)ncc(Cl)c21` [Example 18, (R)-1-(6-((4-amino-5-methoxypentyl)oxy)-2,3-dichlorobenzyl)-7-chloro-1H-imidazo[4,5-c]pyridin-4-amine], the values for the IC50 (in assay [1]; in the assay on H3K4me3 in MV4-11 cells) were 50 to 100 nM and over 3000 nM, respectively. For `Nc1ncnn2c(Cc3c(OCCC[C@@H](N)C(=O)O)ccc(Cl)c3Cl)cnc12` [Example 24, (R)-2-amino-5-(2-((4-aminoimidazo[2,1-f][1,2,4]triazin-7-yl)methyl)-3,4-dichlorophenoxy) pentanoic acid], in that order: 50 to 100 nM and over 3000 nM. On to `Nc1ncnc2c1ncn2Cc1c(OCC[C@H](N)C(=O)O)ccc(F)c1F` [Example 25, O-(2-((6-amino-9H-purin-9-yl)methyl)-3,4-difluorophenyl)-L-homoserine], for which, in assay [1], the IC50 was over 100 nM.

Regarding `CC(C)c1nc(N)c2ncn(Cc3c(Cl)cc(Cl)cc3OCCC[C@@H](N)C(=O)O)c2n1` [Example 26, (R)-2-amino-5-(2-((6-amino-2-isopropyl-9H-purin-9-yl)methyl)-3,5-dichlorophenoxy)pentanoic acid], the IC50 in assay [1] is over 100 nM. The same measure, in the same setting: for `Nc1ncc(Cl)c2c1ncn2Cc1c(Cl)cc(Cl)cc1OCCCC(N)C(=O)O` (stereo not drawn) [Example 28, 2-amino-5-(2-((4-amino-7-chloro-1H-imidazo[4,5-c]pyridin-1-yl)methyl)-3,5-dichlorophenoxy) pentanoic acid] the value was over 100 nM. With `COC(=O)[C@H](N)CCCOc1ccc(Cl)c(Cl)c1Cn1cnc2c(N)ncnc21` [Example 33, methyl (R)-2-amino-5-(2-((6-amino-9H-purin-9-yl)methyl)-3,4-dichlorophenoxy)pentanoate], the IC50 in assay [1] was under 50 nM. For `NC(=O)[C@H](N)CCCOc1ccc(Cl)c(Cl)c1Cc1cnc2c(N)ncnn12` [Example 35, (R)-2-amino-5-(2-((4-aminoimidazo[2,1-f][1,2,4]triazin-7-yl)methyl)-3,4-dichlorophenoxy)pentanamide], the IC50 was over 100 nM in assay [1] and over 3000 nM with H3K4me3 in MV4-11 cells. For the compound `NC(=O)[C@H](N)CCCOc1cc(Cl)cc(Cl)c1Cn1cnc2c(N)ncc(Cl)c21` [Example 38, (R)-2-amino-5-(2-((4-amino-7-chloro-1H-imidazo[4,5-c]pyridin-1-yl)methyl)-3,5-dichlorophenoxy)pentanamide], the IC50 in assay [1] is over 100 nM. Same read-out and setting: for `CNC(=O)[C@H](N)CCCOc1ccc(Cl)c(Cl)c1Cn1cnc2c(N)ncnc21` [Example 40, (R)-2-amino-5-(2-((6-amino-9H-purin-9-yl)methyl)-3,4-dichlorophenoxy)-N-methylpentanamide] the value was over 100 nM.

In the case of `NCCCCOc1cc(Cl)cc(Cl)c1Cn1cnc2c(N)nccc21` [Example 46, 1-(2-(4-aminobutoxy)-4,6-dichlorobenzyl)-1H-imidazo[4,5-c]pyridin-4-amine], the IC50 in assay [1] was over 100 nM.
